Assay results published in ChEMBL document CHEMBL1151374, “Plant anticancer agents. XIX Constituents of Aquilaria malaccensis” (1981).
Converted amounts (≈) assume the structure as drawn. The source made the active and inactive calls. The rule behind the calls is not given here.

Assays:
P388 [1] = test: Cytotoxicity against mouse P388 cells in in vivo assay; assay type: functional, organism-based
P388 [2] = test: Cytotoxicity against mouse P388 cells in in vitro assay; assay type: functional; details: read-out: ED50 (the source's name)

## CCCCCCCCCCCCCCCCCCCCCC(=O)OCC(COC(=O)CCCCCCCCCCCCCCCCCCCCC)OC(=O)/C=C/c1ccc(O)c(OC)c1
P388 [1]
  Activity: inactive
P388 [2]
  EC50: 0.8 µg/mL (≈ 0.876 µM)

## CCC/C=C/C=C/C=C/C(=O)O[C@@H]1[C@@H](C)[C@@]2(O)[C@@H](C=C(CO)C[C@]3(O)C(=O)C(C)=C[C@@H]23)[C@@H]2C(C)(C)[C@]12OC(C)=O
P388 [2]
  EC50: 0.0022 µg/mL (≈ 0.00397 µM)
